Test results published in patent US12528813B2, “Substituted imidazo[4,5-b]pyridines as M3 receptor PAMs” (NIPPON SHINYAKU CO., LTD., priority 2019, dated 2026).

What follows are compounds tested on anesthetized rats (assay: Effect on increase in intravesical pressure induced by pelvic nerve electrical stimulation in anesthetized rats). Conditions: Rattus norvegicus, 1 h, anesthetized SD female rats, test compound 0.3 mg/kg intravenous, single dose, read-out: Ratio of Change Rc of AUC of increase in intravesical pressure (maximum during 1 hour after administration).
Type: in vivo, rat
Description: As the action of nerve stimulation-dependent bladder contraction in vivo, the action of the test compound on increase in intravesical pressure induced by pelvic nerve electrical stimulation using rats was measured by the following method.
SD female rats (Japan SLC, Inc.) were anesthetized by subcutaneously administering 1200 mg/kg of urethane (manufactured by Fujifilm Wako Pure Chemical Industries, Ltd.), and then the lower abdomen of each rat was incised at the midline. After the ureters on both sides were ligated and cut, a cannula for measuring intravesical pressure (PE-60, manufactured by BECTON DICKINSON) was inserted into the bladder through the external urethral orifice and fixed with sutures. After about 200 μL of saline was injected via the cannula inserted into the bladder, the other end of the cannula was connected to a pressure transducer to measure intravesical pressure.
The pelvic nerve near the bladder of the rat was separated under stereomicroscope observation and an electrode for nerve stimulation (K2-14015M-PT, manufactured by BrainScience idea. Co., Ltd.) was attached. The peritoneal cavity of the rat was filled with liquid paraffin (26114-75, NACALAI TESQUE, INC.). After the postoperative rest period, the pelvic nerve was electrically stimulated to cause an increase in intravesical pressure, using an electrical stimulator (SEN-7203, manufactured by NIHON KOHDEN CORPORATION). At this time, the stimulation frequency was set to 8 Hz, the pulse width was set to 0.3 ms, and the stimulation time was set to 10 seconds. The voltage of the electrical stimulator was adjusted such that the increase in intravesical pressure was about 50% to 70% of that at stimulation with 10 V.
Then, the electric stimulation was repeated at an interval of 10 minutes. After the increase in intravesical pressure induced by electric stimulation was stabilized three times or more, a test compound (dosage 0.3 mg/kg), distigmine bromide (dosage 0.03, 0.1 mg/kg), or a vehicle was intravenously administered at a single dosage of 1.0 mL/kg via a catheter placed into a femoral vein, and the effect of the test compound on increase in intravesical pressure was measured for 1 hour. Saline was used as a vehicle, and the test compound was dissolved in dimethylsulfoxide and then added to the vehicle. At this time, the final concentration of dimethylsulfoxide was set to 10%.
The response data (intravesical pressure) were imported to a personal computer via a data collection and analysis system (PowerLab (registered trademark), manufactured by ADInstruments) and analyzed using analysis software (LabChart (registered trademark), manufactured by ADInstruments). For each electric stimulation, AUC of the increase in intravesical pressure (area under the curve of plot of intravesical pressure) was calculated, and a ratio of change Rc (unit: %) with respect to the value (AUC) before administering the test compound was calculated according to the following equation (2). In the equation (2), Ab denotes AUC before administering the test compound, and Aa denotes AUC after administering the test compound. In addition, the maximum effect observed during 1 hour after administering the test compound (maximum ratio of change Rc) was defined as the effect of the test compound. The higher the ratio of change Rc, the higher the effect of enhancing bladder contraction force and the higher the effect of increasing intravesical pressure. Rc=100×(Aa−Ab)/Ab (2)

| SMILES | change in vivo at 0.3 mg/kg [%] |
| --- | --- |
| COCC1(CN(C)c2cc(-c3cnc(C4CC4)c(C(F)(F)F)c3)nc3nc(NC(=O)c4ccc(CCC(=O)O)cn4)[nH]c23)CCCC1 [Example 1, 3-[6-({5-[6-Cyclopropyl-5-(trifluoromethyl)pyridin-3-yl]-7-({[1-(methoxymethyl)cyclopentyl]methyl}(methyl)amino)-1H-imidazo[4,5-b]pyridin-2-yl}carbamoyl)pyridin-3-yl]propanoic acid] | 55.3 |
| CCOc1cc(-c2cc(N(C)CC3(COC)CCCC3)c3[nH]c(NC(=O)c4ccc(CCC(=O)O)cn4)nc3n2)cc(C(F)(F)F)n1 [Example 2, 3-[6-({5-[2-Ethoxy-6-(trifluoromethyl)pyridin-4-yl]-7-({[1-(methoxymethyl)cyclopentyl]methyl}(methyl)amino)-1H-imidazo[4,5-b]pyridin-2-yl}carbamoyl)pyridin-3-yl]propanoic acid] | 36.5 |
| COCC1(CN(C)c2cc(-c3cc(C4CC4)nc(C(F)(F)F)c3)nc3nc(NC(=O)c4ccc(CCC(=O)O)cn4)[nH]c23)CCCC1 [Example 3, 3-[6-({5-[2-Cyclopropyl-6-(trifluoromethyl)pyridin-4-yl]-7-({[1-(methoxymethyl)cyclopentyl]methyl}(methyl)amino)-1H-imidazo[4,5-b]pyridin-2-yl}carbamoyl)pyridin-3-yl]propanoic acid] | 28.5 |
| COCC1(CN(C)c2cc(-c3cnc(C4CC4)c(C(F)(F)F)c3)nc3nc(NC(=O)c4ccc(CC(C)C(=O)O)cn4)[nH]c23)CCCC1 (stereo not drawn) [Example 4, 3-[6-({5-[6-Cyclopropyl-5-(trifluoromethyl)pyridin-3-yl]-7-({[1-(methoxymethyl)cyclopentyl]methyl}(methyl)amino)-1H-imidazo[4,5-b]pyridin-2-yl}carbamoyl)pyridin-3-yl]-2-methylpropanoic acid] | 89.5 |
| COCC1(CN(C)c2cc(-c3cnc(C4CC4)c(C(F)(F)F)c3)nc3nc(NC(=O)c4cn5c(n4)CCC(C(=O)O)C5)[nH]c23)CCCC1 (stereo not drawn) [Example 5, 2-({5-[6-Cyclopropyl-5-(trifluoromethyl)pyridin-3-yl]-7-({[1-(methoxymethyl)cyclopentyl]methyl}(methyl)amino)-1H-imidazo[4,5-b]pyridin-2-yl}carbamoyl)-5,6,7,8-tetrahydroimidazo[1,2-a]pyridine-6-carboxylic acid] | 49.1 |
| COCC1(CN(C)c2cc(-c3cnc(C4CC4)c(C(F)(F)F)c3)nc3nc(NC(=O)c4ccc(CN(C)CC(=O)O)cn4)[nH]c23)CCCC1 [Example 6] | 55.1 |
| COCC1(CN(C)c2cc(-c3cnc(C4CC4)c(C(F)(F)F)c3)nc3nc(NC(=O)c4cn(CCCC(=O)O)cn4)[nH]c23)CCCC1 [Example 7, 4-[4-({5-[6-Cyclopropyl-5-(trifluoromethyl)pyridin-3-yl]-7-({[1-(methoxymethyl)cyclopentyl]methyl}(methyl)amino)-1H-imidazo[4,5-b]pyridin-2-yl}carbamoyl)-1H-imidazol-1-yl]butanoic acid] | 41.8 |
| COCC1(CN(C)c2cc(-c3cnc(C4CC4)c(C(F)(F)F)c3)nc3nc(NC(=O)c4ccc(CCCC(=O)O)cn4)[nH]c23)CCCC1 [Example 8, 4-[6-({5-[6-Cyclopropyl-5-(trifluoromethyl)pyridin-3-yl]-7-({[1-(methoxymethyl)cyclopentyl]methyl}(methyl)amino)-1H-imidazo[4,5-b]pyridin-2-yl}carbamoyl)pyridin-3-yl]butanoic acid] | 85.7 |
| CCOc1cc(-c2cc(N(C)CC3(COC)CCCC3)c3[nH]c(NC(=O)c4cc5c(cn4)CN(CCC(=O)O)CC5)nc3n2)cc(C(F)(F)F)n1 [Example 9] | 44 |
| COCC1(CN(C)c2cc(-c3cc(C4CC4)nc(C(F)(F)F)c3)nc3nc(NC(=O)c4cc5c(cn4)CN(CCC(=O)O)CC5)[nH]c23)CCCC1 [Example 10, 3-[6-({5-[2-Cyclopropyl-6-(trifluoromethyl)pyridin-4-yl]-7-({[1-(methoxymethyl)cyclopentyl]methyl}(methyl)amino)-1H-imidazo[4,5-b]pyridin-2-yl}carbamoyl)-1,2,3,4-tetrahydro-2,7-naphthyridin-2-yl]propanoic acid] | 33.7 |
| COCC1(CN(C)c2cc(-c3cnc(C4CC4)c(C(F)(F)F)c3)nc3nc(NC(=O)c4ccc(CCCC(=O)O)cn4)[nH]c23)CCCCC1 [Example 11, 4-[6-({5-[6-Cyclopropyl-5-(trifluoromethyl)pyridin-3-yl]-7-({[1-(methoxymethyl)cyclohexyl]methyl}(methyl)amino)-1H-imidazo[4,5-b]pyridin-2-yl}carbamoyl)pyridin-3-yl]butanoic acid] | 80.7 |
| CCOc1ncc(-c2cc(N(C)CC3(COC)CCCC3)c3[nH]c(NC(=O)c4ccc(CCCC(=O)O)cn4)nc3n2)cc1C(F)(F)F [Example 12, 4-[6-({5-[6-Ethoxy-5-(trifluoromethyl)pyridin-3-yl]-7-({[1-(methoxymethyl)cyclopentyl]methyl}(methyl)amino)-1H-imidazo[4,5-b]pyridin-2-yl}carbamoyl)pyridin-3-yl]butanoic acid] | 53.4 |
| CCOc1ncc(-c2cc(N(C)CC3(COC)CCCCC3)c3[nH]c(NC(=O)c4ccc(CCC(=O)O)cn4)nc3n2)cc1C(F)(F)F [Example 13] | 113 |
| CCOc1ncc(-c2cc(N(C)CC3(COC)CCCCC3)c3[nH]c(NC(=O)c4ccc(CCCC(=O)O)cn4)nc3n2)cc1C(F)(F)F [Example 14, 4-[6-({5-[6-Ethoxy-5-(trifluoromethyl)pyridin-3-yl]-7-({[1-(methoxymethyl)cyclohexyl]methyl}(methyl)amino)-1H-imidazo[4,5-b]pyridin-2-yl}carbamoyl)pyridin-3-yl]butanoic acid] | 70.4 |

Same assay, conditions: anesthetized SD female rats, intravenous, test compound 0.3 mg/kg, distigmine bromide 0.03, 0.1 mg/kg

| SMILES | effect of enhancing bladder contraction force |
| --- | --- |
| CN(CCCCCCN(C)C(=O)Oc1ccc[n+](C)c1)C(=O)Oc1ccc[n+](C)c1 [distigmine bromide, reference compound] | exhibited an effect of enhancing bladder contraction force |

Same assay, conditions: anesthetized SD female rats, test compound 0.3 mg/kg intravenous, single dose

| SMILES | Ratio of Change Rc of AUC of increase in intravesical pressure (maximum during 1 hour after administration) [%] |
| --- | --- |
| COCC1(CN(C)c2cc(-c3cnc(C4CC4)c(C(F)(F)F)c3)nc3nc(NC(=O)c4ccc(C5CC5C(=O)O)cn4)[nH]c23)CCCC1 (stereo not drawn) [Compound 49] | 43.6 |
| COCC1(CN(C)c2cc(-c3cnc(C4CC4)c(C(F)(F)F)c3)nc3nc(NC(=O)c4cn(C[C@@H](C)C(=O)O)cn4)[nH]c23)CCCC1 [Compound 53] | 50.2 |

The compounds below were run on anesthetized rats in the same assay as above. Conditions: intravenous, 0.1 mg/kg.
Type: in vivo, rat

| SMILES | nicotinic side effect (fasciculation) |
| --- | --- |
| CN(CCCCCCN(C)C(=O)Oc1ccc[n+](C)c1)C(=O)Oc1ccc[n+](C)c1 [distigmine bromide, reference compound] | a nicotinic side effect (fasciculation) was observed |
